{"source": "patent US20080182811A1", "about": "“METABOTROPIC GLUTAMATE RECEPTOR ACTIVATOR” (Ajinomoto Co., Inc., priority 2005, published 2008)", "key": {"[1]": {"molecular_target": "T1, group II metabotropic glutamate receptor subtype 3 (mGluR3) (Homo sapiens, UniProt Q14832)", "T1 construct": "expressed in transfected cells; host or cells: Xenopus oocytes injected with cRNAs of mGluR3, GIRK1 and GIRK4", "T1 sequence (Q14832 23-879)": "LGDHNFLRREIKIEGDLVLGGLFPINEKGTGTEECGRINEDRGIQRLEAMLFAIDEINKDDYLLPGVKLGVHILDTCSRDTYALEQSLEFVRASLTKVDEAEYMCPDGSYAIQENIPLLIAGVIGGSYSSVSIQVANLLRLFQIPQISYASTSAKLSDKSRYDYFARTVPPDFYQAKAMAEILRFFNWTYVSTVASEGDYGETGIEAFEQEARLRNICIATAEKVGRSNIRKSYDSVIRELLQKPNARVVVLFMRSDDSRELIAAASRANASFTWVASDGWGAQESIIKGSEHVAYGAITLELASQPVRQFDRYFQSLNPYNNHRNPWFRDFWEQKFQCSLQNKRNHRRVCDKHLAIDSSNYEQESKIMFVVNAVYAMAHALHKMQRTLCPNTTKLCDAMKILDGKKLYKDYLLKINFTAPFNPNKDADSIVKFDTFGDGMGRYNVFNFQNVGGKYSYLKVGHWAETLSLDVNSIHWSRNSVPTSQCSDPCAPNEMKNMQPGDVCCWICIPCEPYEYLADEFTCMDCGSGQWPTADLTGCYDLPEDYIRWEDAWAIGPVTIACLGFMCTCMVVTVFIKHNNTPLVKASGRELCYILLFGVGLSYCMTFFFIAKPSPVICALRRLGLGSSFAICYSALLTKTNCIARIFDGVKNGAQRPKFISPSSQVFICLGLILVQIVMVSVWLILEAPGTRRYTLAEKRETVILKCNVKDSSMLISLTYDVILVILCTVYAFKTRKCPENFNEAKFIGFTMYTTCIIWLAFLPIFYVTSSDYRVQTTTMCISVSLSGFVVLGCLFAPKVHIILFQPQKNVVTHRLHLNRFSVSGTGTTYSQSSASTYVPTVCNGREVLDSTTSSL", "experiment": "Electrophysiological measurement of response current in Xenopus oocytes injected with mGluR3, GIRK1 and GIRK4 cRNAs", "format": "cell-based", "settings": "for mgluR3 (receptor activation by amino acid): amino acid alone, 1 mM, oocytes injected with mGluR3, GIRK1, GIRK4 cRNAs; for effect of amino acid (response current value) with nucleic acid vs amino acid alone: coexistence with inosinic acid (1 mM), valine 1 mM, FIG. 6"}, "[2]": {"molecular_target": "T2, group I metabotropic glutamate receptor subtype 5 (mGluR5) (Homo sapiens, UniProt P41594)", "T2 construct": "expressed in transfected cells; host or cells: Xenopus oocytes injected with cRNA", "T2 sequence (P41594 21-1180 isoform P41594-2 limits assumed)": "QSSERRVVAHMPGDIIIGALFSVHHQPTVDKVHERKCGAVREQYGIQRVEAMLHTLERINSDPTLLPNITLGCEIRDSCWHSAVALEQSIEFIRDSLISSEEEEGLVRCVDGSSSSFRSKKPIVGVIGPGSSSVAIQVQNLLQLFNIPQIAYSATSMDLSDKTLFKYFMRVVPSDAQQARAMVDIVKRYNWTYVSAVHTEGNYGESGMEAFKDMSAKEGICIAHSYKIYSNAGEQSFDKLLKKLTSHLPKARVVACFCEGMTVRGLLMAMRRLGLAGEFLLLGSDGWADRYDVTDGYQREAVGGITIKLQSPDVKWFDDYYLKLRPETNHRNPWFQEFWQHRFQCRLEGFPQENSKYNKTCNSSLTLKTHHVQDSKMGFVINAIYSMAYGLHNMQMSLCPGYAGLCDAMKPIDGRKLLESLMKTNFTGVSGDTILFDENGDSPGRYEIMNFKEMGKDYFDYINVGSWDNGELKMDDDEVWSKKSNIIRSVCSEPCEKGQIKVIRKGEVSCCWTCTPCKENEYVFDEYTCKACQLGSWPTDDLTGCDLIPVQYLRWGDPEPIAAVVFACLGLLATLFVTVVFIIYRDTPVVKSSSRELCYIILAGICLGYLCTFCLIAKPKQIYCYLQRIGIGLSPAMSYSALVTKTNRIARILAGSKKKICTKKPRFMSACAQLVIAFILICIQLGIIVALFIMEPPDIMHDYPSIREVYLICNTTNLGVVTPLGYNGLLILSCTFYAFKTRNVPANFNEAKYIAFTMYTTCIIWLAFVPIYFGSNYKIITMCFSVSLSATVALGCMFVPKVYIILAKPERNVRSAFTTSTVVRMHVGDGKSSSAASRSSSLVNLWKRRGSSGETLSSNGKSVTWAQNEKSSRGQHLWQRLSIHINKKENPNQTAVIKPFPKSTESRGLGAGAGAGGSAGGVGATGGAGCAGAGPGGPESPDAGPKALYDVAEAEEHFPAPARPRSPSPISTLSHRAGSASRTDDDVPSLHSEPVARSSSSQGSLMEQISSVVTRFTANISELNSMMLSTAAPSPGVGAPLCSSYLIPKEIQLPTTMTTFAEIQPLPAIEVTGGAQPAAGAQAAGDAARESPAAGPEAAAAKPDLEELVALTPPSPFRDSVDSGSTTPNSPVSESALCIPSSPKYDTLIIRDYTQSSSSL", "experiment": "Electrophysiological measurement of response current in Xenopus oocytes injected with mGluR5 cRNA", "format": "cell-based", "settings": "aspartic acid 300 μM, valine 3 mM; for mGluR5 (receptor activation by amino acid): amino acid alone, others 10 mM, oocytes injected with mGluR5 cRNA", "text": "A metabotropic glutamate receptor subtype 5 (mGluR5) was used as a group I metabotropic glutamate receptor. A metabotropic glutamate receptor subtype 3 (mGluR3) was used as a representative of group II metabotropic glutamate receptors. A metabotropic glutamate receptor subtype 8 (mGluR8) was used as a representative of group III metabotropic glutamate receptors. The genes of the three metabotropic glutamate receptors, G-protein-gated inward rectifier K channel 1 (GIRK1), and G-protein-gated inward rectifier K channel 4 (GIRK4) were prepared as follows.\nPCR was performed using a cDNA derived from the human brain (manufactured by Clontech) as a material and using Pfu ultra DNA Polymerase (manufactured by Stratagene) under the following conditions. After a 3-minute reaction at 94° C., a cycle of 94° C./30 seconds, 55° C./30 seconds, and 72° C./2 minutes was repeated 35 times, followed by a 7-minute reaction at 72° C. Amplified PCR products were subjected to agarose gel electrophoresis, stained with a DNA staining reagent and detected by UV irradiation. The lengths of the PCR products were confirmed by comparing the lengths with a DNA marker having a known size, which was electrophoresed simultaneously with the PCR products. A plasmid vector pBR322 was cleaved with a restriction enzyme EcoRV (manufactured by TAKARA BIO INC.). The respective gene fragments amplified by PCR were ligated to the cleaved site using Ligation Kit (manufactured by Promega). Escherichia coli DH5a strain was transformed with the reaction solution, and transformants carrying plasmids where the PCR products were cloned were selected. The PCR amplified products were identified by DNA sequence analysis. The recombinant plasmids were used as a template to prepare cRNA of each of the receptor genes using a cRNA preparation kit (Ambion, Inc.).\nSpecial grade reagents of twenty-three L-amino acids including alanine, arginine, asparagine, aspartic acid, cysteine, glutamine, glutamic acid, glycine, histidine, isoleucine, leucine, lysine, methionine, phenylalanine, proline, serine, threonine, tryptophan, tyrosine, valine, ornithine, taurine, and hydroxyproline were used. Special grade reagents of inosine and calcium chloride were used. Glutamine and cysteine were prepared every time before use, and the other reagents were prepared and stored at −20° C. A solution for dissolving amino acids, nucleic acids, and cations, a solution for preparing Xenopus oocytes, and a solution for culturing Xenopus oocytes have the following composition. NaCl 96 mM/KCl 2 mM/MgCl2 1 mM/CaCl2 1.8 mM/Hepes 5 mM/pH 7.2.\nCa ion concentration-dependent Cl ion current measurement method using a Xenopus oocyte expression system was used as a method of measuring the signaling via a metabotropic glutamate receptor. The abdomen of a Xenopus were incised, and the egg mass was removed and treated with a 1% collagenase solution at 20° C. for 2 hours, to thereby obtain individual oocytes. To one oocyte was introduced 50 nl of 1 μg/μl receptor cRNA or 50 nl of distilled water using a microcapillary, followed by culture at 18° C. for 2 or 3 days. This culture was performed using a solution obtained by adding 2 mM pyruvic acid, 10 U/ml penicillin, and 10 μg/ml streptomycin to the solution shown in Example 2. After completion of culture, a ligand solution was added to oocytes injected with the cRNA and oocytes injected with distilled water, respectively. Electrophysiological measurement was performed using an amplifier Geneclamp 500 (manufactured by Axon Instruments, Inc.) and recording software AxoScope 9.0 (manufactured by Axon Instruments, Inc.). The oocytes were subjected to membrane potential fixation at −70 mV by a two-electrode membrane potential fixation method, and intracellular currents via Ca ion concentration-dependent Cl ion were measured. The maximal value of the intracellular currents was defined as a response current value."}, "[3]": {"settings": "glutamic acid 3 μM, aspartic acid 300 μM, leucine 1 mM"}}}
{"smiles": "N[C@@H](Cc1c[nH]c2ccccc12)C(=O)O", "note": "[Tryptophan, tryptophan]", "values": [{"measurement": "mgluR3 (receptor activation by amino acid)", "setting": "[1]", "value": "Activated"}, {"measurement": "mgluR3 (receptor activation by amino acid)", "setting": "[1]; listed as tryptophan", "value": "effects of enhancing the activation"}]}
{"smiles": "C[C@@H](O)[C@H](N)C(=O)O", "note": "[Threonine, threonine]", "values": [{"measurement": "mgluR3 (receptor activation by amino acid)", "setting": "[1]", "value": "Activated"}, {"measurement": "mgluR3 (receptor activation by amino acid)", "setting": "[1]; listed as threonine", "value": "effects of enhancing the activation"}]}
{"smiles": "O=C(O)[C@@H]1CCCN1", "note": "[Proline, proline]", "values": [{"measurement": "mgluR3 (receptor activation by amino acid)", "setting": "[1]", "value": "Activated"}, {"measurement": "mgluR3 (receptor activation by amino acid)", "setting": "[1]; listed as proline", "value": "effects of enhancing the activation"}]}
{"smiles": "CC(C)[C@H](N)C(=O)O", "note": "[Valine, valine]", "values": [{"measurement": "mgluR3 (receptor activation by amino acid)", "setting": "[1]", "value": "Activated"}, {"measurement": "mgluR3 (receptor activation by amino acid)", "setting": "[1]; listed as valine", "value": "effects of enhancing the activation"}, {"measurement": "effect of amino acid (response current value) with nucleic acid vs amino acid alone", "setting": "[1]; [3]", "value": "enhanced"}, {"measurement": "mGluR5 (receptor activation by amino acid)", "setting": "[2]; cysteine 1 mM", "value": "Activated"}, {"measurement": "mGluR5 (receptor activation by amino acid)", "setting": "[2]; cysteine 1 mM, listed as valine", "value": "effects of enhancing"}, {"measurement": "effect of amino acid (response current value) with nucleic acid and cation vs amino acid alone", "setting": "[2]; coexistence with both inosinic acid (1 mM) and calcium ion (10 mM), glutamic acid 3 μM, cysteine 1 mM, FIG. 4", "value": "enhanced"}, {"measurement": "effect of amino acid (response current value) with cation vs amino acid alone", "setting": "[2]; coexistence with calcium ion (10 mM), glutamic acid 3 μM, cysteine 3 mM, FIG. 3", "value": "enhanced"}, {"measurement": "effect of amino acid (response current value) with nucleic acid vs amino acid alone", "setting": "[2]; coexistence with inosinic acid (1 mM), glutamic acid 3 μM, cysteine 3 mM, FIG. 2", "value": "enhanced"}]}
{"smiles": "NCCC[C@H](N)C(=O)O", "note": "[Ornithine, ornithine]", "values": [{"measurement": "mgluR3 (receptor activation by amino acid)", "setting": "[1]", "value": "Activated"}, {"measurement": "mgluR3 (receptor activation by amino acid)", "setting": "[1]; listed as ornithine", "value": "effects of enhancing the activation"}]}
{"smiles": "N[C@@H](Cc1c[nH]cn1)C(=O)O", "note": "[Histidine, histidine]", "values": [{"measurement": "mgluR3 (receptor activation by amino acid)", "setting": "[1]", "value": "Activated"}, {"measurement": "mgluR3 (receptor activation by amino acid)", "setting": "[1]; listed as histidine", "value": "effects of enhancing the activation"}]}
{"smiles": "C[C@H](N)C(=O)O", "note": "[Alanine, alanine]", "values": [{"measurement": "mgluR3 (receptor activation by amino acid)", "setting": "[1]", "value": "Activated"}, {"measurement": "mgluR3 (receptor activation by amino acid)", "setting": "[1]; listed as alanine", "value": "effects of enhancing the activation"}]}
{"smiles": "NC(=O)CC[C@H](N)C(=O)O", "note": "[Glutamine, glutamine]", "values": [{"measurement": "mgluR3 (receptor activation by amino acid)", "setting": "[1]", "value": "Activated"}, {"measurement": "mgluR3 (receptor activation by amino acid)", "setting": "[1]; listed as glutamine", "value": "effects of enhancing the activation"}]}
{"smiles": "O=C(O)[C@@H]1C[C@@H](O)CN1", "note": "[Hydroxyproline, hydroxyproline]", "values": [{"measurement": "mgluR3 (receptor activation by amino acid)", "setting": "[1]", "value": "Activated"}, {"measurement": "mgluR3 (receptor activation by amino acid)", "setting": "[1]; listed as hydroxyproline", "value": "effects of enhancing the activation"}]}
{"smiles": "N=C(N)NCCC[C@H](N)C(=O)O", "note": "[Arginine, arginine]", "values": [{"measurement": "mgluR3 (receptor activation by amino acid)", "setting": "[1]", "value": "Activated"}, {"measurement": "mgluR3 (receptor activation by amino acid)", "setting": "[1]; listed as arginine", "value": "effects of enhancing the activation"}]}
{"smiles": "NC(=O)C[C@H](N)C(=O)O", "note": "[Asparagine, asparagine]", "values": [{"measurement": "mgluR3 (receptor activation by amino acid)", "setting": "[1]", "value": "Activated"}, {"measurement": "mgluR3 (receptor activation by amino acid)", "setting": "[1]; listed as asparagine", "value": "effects of enhancing the activation"}]}
{"smiles": "CC(C)C[C@H](N)C(=O)O", "note": "[Leucine, leucine]", "values": [{"measurement": "mgluR3 (receptor activation by amino acid)", "setting": "[1]", "value": "Activated"}, {"measurement": "mgluR3 (receptor activation by amino acid)", "setting": "[1]; listed as leucine", "value": "effects of enhancing the activation"}, {"measurement": "effect of amino acid (response current value) with cation vs amino acid alone", "setting": "[1]; coexistence with calcium ion (10 mM), glutamic acid 3 μM, aspartic acid 300 μM, leucine 1 mM, cysteine 1 mM, FIG. 7", "value": "enhanced"}, {"measurement": "effect of amino acid (response current value) with nucleic acid and cation vs amino acid alone", "setting": "[1]; coexistence with inosinic acid (1 mM) and calcium ion (10 mM), glutamic acid 3 μM, aspartic acid 300 μM, leucine 1 mM, cysteine 1 mM, FIG. 8", "value": "enhanced"}, {"measurement": "effect of amino acid (response current value) with nucleic acid vs amino acid alone", "setting": "[1]; [3]", "value": "enhanced"}]}
{"smiles": "CSCC[C@H](N)C(=O)O", "note": "[Methionine, methionine]", "values": [{"measurement": "mgluR3 (receptor activation by amino acid)", "setting": "[1]", "value": "Activated"}, {"measurement": "mgluR3 (receptor activation by amino acid)", "setting": "[1]; listed as methionine", "value": "effects of enhancing the activation"}]}
{"smiles": "NCCS(=O)(=O)O", "note": "[Taurine, taurine]", "values": [{"measurement": "mgluR3 (receptor activation by amino acid)", "setting": "[1]", "value": "Activated"}, {"measurement": "mgluR3 (receptor activation by amino acid)", "setting": "[1]; listed as taurine", "value": "effects of enhancing the activation"}]}
{"smiles": "N[C@@H](CO)C(=O)O", "note": "[Serine, serine]", "values": [{"measurement": "mgluR3 (receptor activation by amino acid)", "setting": "[1]", "value": "Activated"}, {"measurement": "mgluR3 (receptor activation by amino acid)", "setting": "[1]; listed as serine", "value": "effects of enhancing the activation"}]}
{"smiles": "CC[C@H](C)[C@H](N)C(=O)O", "note": "[Isoleucine, isoleucine]", "values": [{"measurement": "mgluR3 (receptor activation by amino acid)", "setting": "[1]", "value": "Activated"}, {"measurement": "mgluR3 (receptor activation by amino acid)", "setting": "[1]; listed as isoleucine", "value": "effects of enhancing the activation"}]}
{"smiles": "N[C@@H](Cc1ccc(O)cc1)C(=O)O", "note": "[Tyrosine, tyrosine]", "values": [{"measurement": "mgluR3 (receptor activation by amino acid)", "setting": "[1]", "value": "Activated"}, {"measurement": "mgluR3 (receptor activation by amino acid)", "setting": "[1]; listed as tyrosine", "value": "effects of enhancing the activation"}]}
{"smiles": "N[C@@H](Cc1ccccc1)C(=O)O", "note": "[Phenylalanine, phenylalanine]", "values": [{"measurement": "mgluR3 (receptor activation by amino acid)", "setting": "[1]", "value": "Activated"}, {"measurement": "mgluR3 (receptor activation by amino acid)", "setting": "[1]; listed as phenylalanine", "value": "effects of enhancing the activation"}]}
{"smiles": "NCCCC[C@H](N)C(=O)O", "note": "[Lysine, lysine]", "values": [{"measurement": "mgluR3 (receptor activation by amino acid)", "setting": "[1]", "value": "Activated"}, {"measurement": "mgluR3 (receptor activation by amino acid)", "setting": "[1]; listed as lysine", "value": "effects of enhancing the activation"}]}
{"smiles": "NCC(=O)O", "note": "[Glycine, glycine]", "values": [{"measurement": "mgluR3 (receptor activation by amino acid)", "setting": "[1]", "value": "Activated"}, {"measurement": "mgluR3 (receptor activation by amino acid)", "setting": "[1]; listed as glycine", "value": "effects of enhancing the activation"}]}
